Here are results for five compounds from patent US9603364B2 (Dow AgroSciences LLC, priority 2013, dated 2017).

Common to all, as to assay: General post-emergent herbicidal activity, foliar application
Assay type in all cases: in vivo

The subject of experiment [1] is Amaranthus retroflexus L. (pigweed, redroot). The note with it: for pest or weed control at 280 g/ha: 280 g ai/ha; for pest or weed control at 70 g/ha: 70 g ai/ha; for GR80 Value AMARE: calculated by probit analysis, dose for 80% visual injury, may be extrapolated. The protocol:
(§1) A weighed amount, determined by the highest rate to be tested, of each test compound was placed in a 25 mL glass vial and was dissolved in 4 mL of a 97:3 v/v (volume/volume) mixture of acetone and dimethyl sulfoxide to obtain concentrated stock solutions which will be referred to as General Purpose Solvent. […] The concentrated stock solutions obtained were diluted with 20 mL of an aqueous mixture containing water, General Purpose Solvent, isopropyl alcohol, Atplus 411F crop oil concentrate, and Triton X-155 surfactant in a 46:42:12:1.0:0.02 v/v ratio to obtain spray solutions containing the highest application rates. Additional application rates were obtained by serial dilution of 12 mL of the high rate solution into a solution containing 2 mL of 97:3 v/v (volume/volume) mixture of acetone and dimethyl sulfoxide and 10 mL of an aqueous mixture containing water, General Purpose Solvent, isopropyl alcohol, Atplus 411F crop oil concentrate, and Triton X-155 surfactant in a 46:42:12:1.0:0.02 v/v ratio to obtain 1/2×, 1/4×, 1/8× and 1/16× rates of the high rate. […] Control plants were sprayed in the same manner with the solvent blank.
(§2) The treated plants and control plants were placed in a greenhouse as described above and watered by sub-irrigation to prevent wash-off of the test compounds. After 14 days, the condition of the test plants as compared with that of the untreated plants was determined visually and scored on a scale of 0 to 100 percent where 0 corresponds to no injury and 100 corresponds to complete kill.
(§3) By applying the well-accepted probit analysis as described by J. Berkson in […], 48, 565 (1953) and by D. Finney in “Probit Analysis” Cambridge University Press (1952), the dose response data gathered as expressed above can be used to calculate GR20, GR50 and GR80 values, which are defined as growth reduction factors that correspond to the effective dose of herbicide required to kill or control 20 percent, 50 percent or 80 percent, respectively, of a target plant. Data not expressed in Table A may have been used to calculate some of the GR80 values in Table B. In some cases, the GR80 values may be extrapolations calculated based on the slope of the dose response curve for individual compounds listed in Table B.

Experiment [2] relates to Chenopodium album L. (lambsquarters, common). The note with it: for pest or weed control at 280 g/ha: 280 g ai/ha; for pest or weed control at 70 g/ha: 70 g ai/ha; for pest or weed control at 140 g/ha: 140 g ai/ha; for GR80 Value CHEAL: calculated by probit analysis, dose for 80% visual injury, may be extrapolated. The protocol:
as §1, §2, §3

Experiment [3] relates to Echinochloa crus-galli (L.) Beauv. (barnyardgrass). The following applies: for pest or weed control at 280 g/ha: 280 g ai/ha; for pest or weed control at 70 g/ha: 70 g ai/ha; for pest or weed control at 140 g/ha: 140 g ai/ha; for GR80 Value ECHCG: calculated by probit analysis, may be extrapolated. On the procedure: as §1, §2, §3
The test system of experiment [4] is Euphorbia heterophylla L. (poinsettia, wild). The note with it: for pest or weed control at 280 g/ha: 280 g ai/ha; for pest or weed control at 70 g/ha: 70 g ai/ha; for pest or weed control at 140 g/ha: 140 g ai/ha; for GR80 Value EPHHL: calculated by probit analysis, dose for 80% visual injury, may be extrapolated. On the procedure: as §1, §2, §3
Experiment [5] deals with Helianthus annuus L. (sunflower, common). The note with it: for pest or weed control at 280 g/ha: 280 g ai/ha; for pest or weed control at 140 g/ha: 140 g ai/ha; for GR80 Value HELAN: calculated by probit analysis, dose for 80% visual injury, may be extrapolated. On the procedure:
as §1, §2, §3

The subject of experiment [6] is Viola tricolor L. (pansy). The note with it: for pest or weed control at 280 g/ha: 280 g ai/ha; for pest or weed control at 140 g/ha: 140 g ai/ha; for GR80 Value VIOTR: calculated by probit analysis, may be extrapolated. The protocol: as §1, §2, §3
The test system of another experiment is Oryza sativa L. (rice). The following applies: scored after 14 days; for plant injury at 280 g/ha: 280 g ai/ha; for plant injury at 140 g/ha: 140 g ai/ha. On the procedure: as §1, §2
For a further experiment, the system named is Zea mays L. (corn). The following applies: 336 h, scored after 14 days, read-out: % Visual Growth Reduction ZEAMX; for plant injury at 280 g/ha: 280 g ai/ha; for plant injury at 140 g/ha: 140 g ai/ha. The protocol:
as §1, §2

[7] abbreviates: Amaranthus retroflexus, 336 h, foliar post-emergent, scored after 14 days, read-out: % Visual Growth Reduction AMARE.
Setting [8] is: Chenopodium album, 336 h, foliar post-emergent, scored after 14 days, read-out: % Visual Growth Reduction CHEAL.
[9] abbreviates: Echinochloa crus-galli, 336 h, foliar post-emergent, scored after 14 days, read-out: % Visual Growth Reduction ECHCG.
[10] abbreviates: Euphorbia heterophylla, 336 h, foliar post-emergent, scored after 14 days, read-out: % Visual Growth Reduction EPHHL.
[11] abbreviates: Helianthus annuus, 336 h, foliar post-emergent, scored after 14 days, read-out: % Visual Growth Reduction HELAN.
Setting [12] is: Viola tricolor, 336 h, foliar post-emergent, scored after 14 days, read-out: % Visual Growth Reduction VIOTR.
Where [13] appears, read: Oryza sativa, 336 h, read-out: % Visual Growth Reduction ORYSA.
The mark [14] stands for this setting: Amaranthus retroflexus, 336 h, 140 g ai/ha, foliar post-emergent, scored after 14 days, read-out: % Visual Growth Reduction AMARE.
Where [15] appears, read: calculated, dose for 80% visual injury, prior art tables.

Some results are limits rather than exact numbers.

In the case of `COC(=O)c1nc(CCl)cc(N)c1Cl` [Compound F35, methyl 4-amino-3-chloro-6-(chloromethyl)picolinate], the pest or weed control at 280 g/ha in experiment [1] (setting [7]), in experiment [2] (setting [8]), in experiment [3] (setting [9]), in experiment [4] (setting [10]), in experiment [5] (setting [11]) and in experiment [6] (setting [12]) was 0% in each case. The plant injury at 280 g/ha with Oryza sativa L. (rice) (setting [13]) and with Zea mays L. (corn) was 0% each time.

`COC(=O)c1nc(C(F)(F)F)cc(N)c1Cl` [Prior Art 1, reference compound]: the “% Visual Growth Reduction AMARE” value in experiment [1] (140 g ai/ha, foliar post-emergent, scored after 14 days) was determined as 100%. For the same compound, the pest or weed control at 70 g/ha in experiment [1] (setting [7]) was 80%; in experiment [2] (setting [8]), 85%; in experiment [3] (setting [9]) it was 0%; in experiment [4] (setting [10]), 85%. Besides, the pest or weed control at 140 g/ha in experiment [1] (setting [14]) is 100%; in experiment [2] (setting [8]), 100%; in experiment [3] (setting [9]), 0%; in experiment [4] (setting [10]) it was 95%; in experiment [6] (setting [12]) it was 95%. The pest or weed control at 35 g/ha in experiment [2] (Chenopodium album, 336 h, 35 g ai/ha, foliar post-emergent, scored after 14 days, read-out: % Visual Growth Reduction CHEAL) amounted to 80%; in experiment [3] (Echinochloa crus-galli, 336 h, 35 g ai/ha, foliar post-emergent, scored after 14 days, read-out: % Visual Growth Reduction ECHCG), 0%; in experiment [4] (Euphorbia heterophylla, 336 h, 35 g ai/ha, foliar post-emergent, scored after 14 days, read-out: % Visual Growth Reduction EPHHL) it was 80%. Further, the “GR80 Values ECHCG” value in experiment [3] (setting [15]) is on record as greater than 140 g/ha. Besides, the “GR80 Values VIOTR” value in experiment [6] (setting [15]) is listed as 121 g/ha. For the same compound, in the experiment on Oryza sativa L. (rice) (35 g ai/ha), the “% Visual Growth Reduction ORYSA” value stood at 0%. Moreover, the plant injury at 35 g/ha with Oryza sativa L. (rice) (Oryza sativa, 336 h, 35 g ai/ha, read-out: % Visual Growth Reduction ORYSA) is 0%; with Zea mays L. (corn) (35 g ai/ha), 0%.

For `COC(=O)c1nc(CCF)c(F)c(N)c1Cl` [Compound F29, Methyl 4-amino-3-chloro-5-fluoro-6-(2-fluoroethyl)picolinate], the pest or weed control at 70 g/ha in experiment [1] (setting [7]) was determined as 90%; in experiment [2] (setting [8]), 90%; in experiment [3] (setting [9]) it was 0%; in experiment [4] (setting [10]) it was 100%; in experiment [5] (Helianthus annuus, 336 h, 70 g ai/ha, foliar post-emergent, scored after 14 days, read-out: % Visual Growth Reduction HELAN) it was 80%; in experiment [6] (Viola tricolor, 336 h, 70 g ai/ha, foliar post-emergent, scored after 14 days, read-out: % Visual Growth Reduction VIOTR) it was 10%. The pest or weed control at 140 g/ha stood at 100% in experiment [1] (setting [14]); 90% in experiment [2] (setting [8]); 10% in experiment [3] (setting [9]); 100% in experiment [4] (setting [10]); 90% in experiment [5] (setting [11]); 70% in experiment [6] (setting [12]). Also, the pest or weed control at 280 g/ha is 100% in experiment [1] (setting [7]); 90% in experiment [2] (setting [8]); 60% in experiment [3] (setting [9]); 100% in experiment [4] (setting [10]); 90% in experiment [5] (setting [11]); 90% in experiment [6] (setting [12]). Moreover, the “GR80 Value AMARE” value in experiment [1] is recorded as 55.1 g ai/ha. Besides, the “GR80 Value CHEAL” value in experiment [2] is less than 17.5 g ai/ha. Further, the “GR80 Value ECHCG” value in experiment [3] (dose for 80% visual injury) is reported as 432 g ai/ha. For the same compound, the “GR80 Value EPHHL” value in experiment [4] is listed as 53.9 g ai/ha. In experiment [5], the “GR80 Value HELAN” value was 60 g ai/ha. For the same compound, the “GR80 Value VIOTR” value in experiment [6] (dose for 80% visual injury) is on record as 203 g ai/ha. The plant injury at 70 g/ha turned out to be 0% with Oryza sativa L. (rice) (Oryza sativa, 336 h, 70 g ai/ha, read-out: % Visual Growth Reduction ORYSA) and 0% in the experiment on Zea mays L. (corn) (70 g ai/ha). The plant injury at 140 g/ha with Oryza sativa L. (rice) (setting [13]) and with Zea mays L. (corn) was 0% each time. Moreover, the plant injury at 280 g/ha in the experiment with Oryza sativa L. (rice) (setting [13]) and with Zea mays L. (corn) was 0% each time.

Take `COC(=O)c1nc(CCF)cc(N)c1Cl` [Compound F31, methyl 4-amino-3-chloro-6-(2-fluoroethyl)picolinate]: the pest or weed control at 180 g/ha in experiment [1] (Amaranthus retroflexus, 336 h, 180 g ai/ha, foliar post-emergent, scored after 14 days, read-out: % Visual Growth Reduction AMARE) stood at 15%; in experiment [2] (Chenopodium album, 336 h, 180 g ai/ha, foliar post-emergent, scored after 14 days, read-out: % Visual Growth Reduction CHEAL), 100%; in experiment [3] (Echinochloa crus-galli, 336 h, 180 g ai/ha, foliar post-emergent, scored after 14 days, read-out: % Visual Growth Reduction ECHCG) it was 0%; in experiment [4] (Euphorbia heterophylla, 336 h, 180 g ai/ha, foliar post-emergent, scored after 14 days, read-out: % Visual Growth Reduction EPHHL), 45%; in experiment [5] (Helianthus annuus, 336 h, 180 g ai/ha, foliar post-emergent, scored after 14 days, read-out: % Visual Growth Reduction HELAN), 90%; in experiment [6] (Viola tricolor, 336 h, 180 g ai/ha, foliar post-emergent, scored after 14 days, read-out: % Visual Growth Reduction VIOTR), 100%. In addition, the “GR80 Value AMARE” value in experiment [1] is less than 17.5 g ai/ha. The “GR80 Value CHEAL” value in experiment [2] is given as 6.93 g ai/ha. Besides, the “GR80 Value ECHCG” value in experiment [3] (dose for 80% visual injury) is given as greater than 180 g ai/ha. Also, the “GR80 Value EPHHL” value in experiment [4] is reported as less than 17.5 g ai/ha. For the same compound, the “GR80 Value HELAN” value in experiment [5] is given as 42.4 g ai/ha. In addition, the “GR80 Value VIOTR” value in experiment [6] (dose for 80% visual injury) is 74.4 g ai/ha. In addition, the plant injury at 180 g/ha with Oryza sativa L. (rice) (Oryza sativa, 336 h, 180 g ai/ha, read-out: % Visual Growth Reduction ORYSA) was 0%; in the experiment with Zea mays L. (corn) (180 g ai/ha), 0%.

As for `COC(=O)c1nc(CC(F)F)c(F)c(N)c1Cl` [Compound F2, methyl 4-amino-3-chloro-6-(2,2-difluoroethyl)-5-fluoropicolinate], the pest or weed control at 140 g/ha stood at 100% in experiment [1] (setting [14]); 90% in experiment [2] (setting [8]); 0% in experiment [3] (setting [9]); 100% in experiment [4] (setting [10]); 80% in experiment [5] (setting [11]); 0% in experiment [6] (setting [12]). In experiment [1], the “GR80 Value AMARE” value was 103 g ai/ha. Also, in experiment [2], the “GR80 Value CHEAL” value is 103 g ai/ha. The “GR80 Value ECHCG” value in experiment [3] (dose for 80% visual injury) is recorded as greater than 140 g ai/ha. For the same compound, the “GR80 Value EPHHL” value in experiment [4] is 114 g ai/ha. The “GR80 Value HELAN” value in experiment [5] is on record as 80.8 g ai/ha. For the same compound, the “GR80 Value VIOTR” value in experiment [6] (dose for 80% visual injury) is greater than 140 g ai/ha. Also, the plant injury at 140 g/ha with Oryza sativa L. (rice) (setting [13]) and with Zea mays L. (corn) was 0% throughout.
